Reference: patent US20100022527A1, “BIPHENYL SUBSTITUTED SPIROTETRONIC ACIDS AND THEIR USE FOR THE TREATMENT OF RETROVIRAL DISEASES” (priority 2006, published 2010)

Target: T1, HIV-1 protease wild type protein (Human immunodeficiency virus type 1 group M subtype B, UniProt P04585)
T1 construct: HIV-1 protease wild type protein; purchased AscoProt Biotech, Prague, Czech Republic
Experiment: Biochemical protease assay
Experimental: For the determination of their in vitro activity on HIV proteases the test substances are dissolved in DMSO and serially diluted. In each case 0.5 μl of substance dilution, 20 μl of 0.2-1 nM HIV-1 protease wild type or mutant protein (e.g., multiresistant isolate “35513”: L10I, I15V, L19I, K20R, E35D, M36I, R41K, I54V, L63P, H69K, A71V, T74P, I84V, L89M, L90M, 193L, AscoProt Biotech, Prague, Czech Republic) in buffer 1 (50 mM sodium acetate pH 4.9, 0.02% BSA, 0.1 mM EDTA, 0.5 mM DTT) and 20 μl of 8 μM substrate (M1865 from Bachem, Bubendorf, Switzerland; Matayoshi et al., Science 1990, 247, 954-8) in buffer 1 are added successively to a 384 well microtiter plate (Greiner, Frickenhausen, Germany), incubated for 60-180 minutes at 32° C. and the fluorescence is measured (e.g., Tecan Safire, 340 nm extinction, 520 nm emission). IC50 values are determined by graphical plotting the substance concentration against the percentage inhibition.

Row | SMILES | IC50 [nM]
1 | Cc1cc(-c2ccc(NS(C)(=O)=O)cc2)c(Cl)cc1C1=C(O)C2(CCCCC2)OC1=O [Example 178] | ≤ 100
2 | Cc1cc(-c2cccc(S(C)(=O)=O)c2)c(Cl)cc1C1=C(O)C2(CCCN(CC(=O)Nc3ccccc3)C2)OC1=O (stereo not drawn) [Example 126] | ≤ 100
3 | Cc1cc(-c2cccc(NS(=O)(=O)Cc3ccccc3)c2)c(Cl)cc1C1=C(O)C2(CCCCC2)OC1=O [Example 191] | ≤ 100
4 | CCS(=O)(=O)Nc1cccc(-c2cc(C)c(C3=C(O)C4(CCCCC4)OC3=O)cc2Cl)c1 [Example 190] | ≤ 100
5 | Cc1cc(-c2cccc(S(C)(=O)=O)c2)c(Cl)cc1C1=C(O)C2(CCN(C(=O)CCCc3ccccc3)CC2)OC1=O [Example 145] | ≤ 100
6 | Cc1cc(-c2cccc(Cl)c2)c(Cl)cc1C1=C(O)C2(CCCCC2)OC1=O [Example 31] | ≤ 100
7 | Cc1cc(-c2ccc3c(c2)OCO3)c(Cl)cc1C1=C(O)C2(CCCCC2)OC1=O [Example 24] | ≤ 100
8 | Cc1cc(-c2ccccc2)c(Cl)cc1C1=C(O)C2(CCCCC2)OC1=O [Example 17, 3-(2-Chloro-5-methylbiphenyl-4-yl)-4-hydroxy-1-oxaspiro[4.5]dec-3-en-2-one] | ≤ 100
9 | Cc1cc(-c2ccc(F)c([N+](=O)[O-])c2)c(Cl)cc1C1=C(O)C2(CCCCC2)OC1=O [Example 48] | ≤ 100
10 | Cc1cc(-c2cccc(S(C)(=O)=O)c2)c(Cl)cc1C1=C(O)C2(CCCN(CC(=O)NC(C)C)C2)OC1=O (stereo not drawn) [Example 101] | ≤ 100
11 | Cc1cc(-c2cccc([N+](=O)[O-])c2)c(Cl)cc1C1=C(O)C2(CCCCC2)OC1=O [Example 40] | ≤ 100
12 | Cc1cc(-c2cccc(S(C)(=O)=O)c2)c(Cl)cc1C1=C(O)C2(CCCN(CC(=O)NCc3ccncc3)C2)OC1=O (stereo not drawn) [Example 161, 2-{3-[2-Chloro-5-methyl-3′-(methylsulfonyl)biphenyl-4-yl]-4-hydroxy-2-oxo-1-oxa-7-azaspiro[4.5]dec-3-en-7-yl}-N-(pyridin-4-ylmethyl)acetamide] | ≤ 100
13 | COc1cccc(-c2cc(C)c(C3=C(O)C4(CCCCC4)OC3=O)cc2Cl)c1 [Example 32] | ≤ 100
14 | CCOc1cc(-c2cccc(S(C)(=O)=O)c2)c(C)cc1C1=C(O)C2(CCCCC2)OC1=O [Example 93] | ≤ 100
15 | Cc1cc(-c2cccc(S(C)(=O)=O)c2)c(Cl)cc1C1=C(O)C2(CCCN(CC(=O)NCc3ccccn3)C2)OC1=O (stereo not drawn) [Example 163] | ≤ 100
16 | Cc1cc(-c2cccc(C#N)c2)c(Cl)cc1C1=C(O)C2(CCCCC2)OC1=O [Example 37] | ≤ 100
17 | Cc1cc(-c2cccc(CO)c2)c(Cl)cc1C1=C(O)C2(CCCCC2)OC1=O [Example 26] | ≤ 100
18 | COCCNC(=O)CN1CCCC2(C1)OC(=O)C(c1cc(Cl)c(-c3cccc(S(C)(=O)=O)c3)cc1C)=C2O (stereo not drawn) [Example 116] | ≤ 100
19 | Cc1cc(-c2cccc(C(=O)NCCC#N)c2)c(Cl)cc1C1=C(O)C2(CCCCC2)OC1=O [Example 51] | ≤ 100
20 | Cc1cc(-c2cccc(S(C)(=O)=O)c2)c(Cl)cc1C1=C(O)C2(CCCN(CC(=O)NC(C)c3ccccc3)C2)OC1=O (stereo not drawn) [Example 134] | ≤ 100

Row | SMILES | IC50 [nM]
21 | Cc1cc(-c2cccc(S(C)(=O)=O)c2)c(Cl)cc1C1=C(O)C2(CCCN(C(=O)CCCS(N)(=O)=O)C2)OC1=O (stereo not drawn) [Example 113] | ≤ 100
22 | Cc1cc(-c2ccc(Cl)cc2)c(C)cc1C1=C(O)C2(CCCCC2OC(C)C)OC1=O (stereo not drawn) [Example 13] | ≤ 100
23 | Cc1cc(-c2cccc(S(C)(=O)=O)c2)c(Cl)cc1C1=C(O)C2(CCCN(C(=O)/C=C\c3c[nH]cn3)C2)OC1=O (stereo not drawn) [Example 123] | ≤ 100
24 | CCN(CC)C(=O)N1CCC2(CC1)OC(=O)C(c1cc(Cl)c(-c3cccc(S(C)(=O)=O)c3)cc1C)=C2O [Example 157] | ≤ 100
25 | Cc1cc(-c2cccc(NS(C)(=O)=O)c2)c(Cl)cc1C1=C(O)C2(CCCC2)OC1=O [Example 202] | ≤ 100
26 | Cc1cc(-c2cccc(S(C)(=O)=O)c2)c(Cl)cc1C1=C(O)C2(CCCN(CC(=O)NCc3ccc(Cl)s3)C2)OC1=O (stereo not drawn) [Example 203] | ≤ 100
27 | COc1ccc(-c2cc(C)c(C3=C(O)C4(CCCCC4)OC3=O)cc2Cl)cc1 [Example 23] | ≤ 100
28 | Cc1cc(-c2cccc(S(C)(=O)=O)c2)c(Cl)cc1C1=C(O)C2(CCCC2)OC1=O [Example 200] | ≤ 100
29 | Cc1cc(-c2cccc(S(C)(=O)=O)c2)c(Cl)cc1C1=C(O)C2(CCN(C(=O)OCC(C)(C)C)CC2)OC1=O [Example 152] | ≤ 100
30 | Cc1cc(-c2cccc(S(C)(=O)=O)c2)c(Cl)cc1C1=C(O)C2(CCN(C(=O)CCc3ccc(S(C)(=O)=O)cc3)CC2)OC1=O [Example 109] | ≤ 100
31 | Cc1cc(-c2cccc(NC(=O)CN(C)C)c2)c(Cl)cc1C1=C(O)[C@]2(CC[C@@H]3CCC[C@@H]3C2)OC1=O [Example 182] | ≤ 100
32 | Cc1cc(-c2cccc(C(=O)NC3CC3)c2)c(Cl)cc1C1=C(O)C2(CCCCC2)OC1=O [Example 50] | ≤ 100
33 | COC1CCC2(CC1)OC(=O)C(c1cc(Cl)c(-c3ccccc3)cc1C)=C2O (stereo not drawn) [Example 53] | ≤ 100
34 | Cc1cc(-c2ccc(NS(C)(=O)=O)cc2)c(Cl)cc1C1=C(O)C2(CCC3CCCC3C2)OC1=O (stereo not drawn) [Example 180] | ≤ 100
35 | Cc1cc(-c2cccc(N(C)S(C)(=O)=O)c2)c(Cl)cc1C1=C(O)C2(CCCCC2)OC1=O [Example 185, N-[2′-Chloro-4′-(4-hydroxy-2-oxo-1-oxaspiro[4.5]dec-3-en-3-yl)-5′-methylbiphenyl-3-yl]-N-methylmethanesulfonamide] | ≤ 100
36 | CC(=O)c1cccc(-c2cc(C)c(C3=C(O)C4(CCCCC4)OC3=O)cc2Cl)c1 [Example 27] | ≤ 100
37 | Cc1cc(C2=C(O)C3(CCCCC3)OC2=O)c(Cl)cc1-c1cccc(S(C)(=O)=O)c1 [Example 71] | ≤ 100
38 | Cc1cc(-c2cccc(OC(F)(F)F)c2)c(Cl)cc1C1=C(O)C2(CCCCC2)OC1=O [Example 38] | ≤ 100
39 | Cc1cc(-c2ccc([N+](=O)[O-])cc2)c(Cl)cc1C1=C(O)C2(CCCCC2)OC1=O [Example 47, 3-(2-chloro-5-methyl-4′-nitrobiphenyl-4-yl)-4-hydroxy-1-oxaspiro[4.5]dec-3-en-2-one] | ≤ 100
40 | CCOC1CCCCC12OC(=O)C(c1cc(C)c(-c3ccc(Cl)cc3)cc1Cl)=C2O (single isomer, unassigned) [Example 82] | ≤ 100

Row | SMILES | IC50 [nM]
41 | Cc1ccccc1CNC(=O)CN1CCCC2(C1)OC(=O)C(c1cc(Cl)c(-c3cccc(S(C)(=O)=O)c3)cc1C)=C2O (stereo not drawn) [Example 132] | ≤ 100
42 | Cc1cc(-c2cccc(S(C)(=O)=O)c2)c(Cl)cc1C1=C(O)C2(CCCN(CC(=O)NCc3cccnc3)C2)OC1=O (stereo not drawn) [Example 162] | ≤ 100
43 | CCOC1CCCCC12OC(=O)C(c1cc(Cl)c(-c3cccc(S(C)(=O)=O)c3)cc1C)=C2O (single isomer, unassigned) [Example 75] | ≤ 100
44 | Cc1cc(-c2cccc(NC(=O)CCN)c2)c(Cl)cc1C1=C(O)[C@]2(CC[C@@H]3CCC[C@@H]3C2)OC1=O [Example 183] | ≤ 100
45 | Cc1cc(-c2cccc(S(C)(=O)=O)c2)c(Cl)cc1C1=C(O)C2(CCCN(C(=O)CCC(=O)c3ccccn3)C2)OC1=O (stereo not drawn) [Example 108] | ≤ 100
46 | Cc1cc(-c2ccc(Cl)cc2)c(C)cc1C1=C(O)C2(CCC(C)C(C)C2)OC1=O (stereo not drawn) [Example 9] | ≤ 100
47 | Cc1cc(-c2ccc(Cl)cc2)c(C)cc1C1=C(O)C2(CCC(=O)CC2)OC1=O [Example 11] | ≤ 100
48 | Cc1cc(-c2cccc(S(C)(=O)=O)c2)c(Cl)cc1C1=C(O)C2(CCCN(Cc3nc4ccccc4[nH]3)C2)OC1=O (stereo not drawn) [Example 99] | ≤ 100
49 | Cc1cc(-c2cccc(NS(C)(=O)=O)c2)c(Cl)cc1C1=C(O)C2(CCCN(CC(=O)NCc3ccccc3)C2)OC1=O (stereo not drawn) [Example 97] | ≤ 100
50 | CCOC1CCCCC12OC(=O)C(c1cc(C)c(-c3ccc(Cl)cc3)cc1C)=C2O (stereo not drawn) [Example 14] | ≤ 100
51 | Cc1cc(-c2cccc(NS(=O)(=O)c3cccnc3)c2)c(Cl)cc1C1=C(O)C2(CCCCC2)OC1=O [Example 192] | ≤ 100
52 | Cc1cc(-c2cccc(S(C)(=O)=O)c2)c(Cl)cc1C1=C(O)C2(CCCN(CC(=O)NCc3ccoc3)C2)OC1=O (stereo not drawn) [Example 168] | ≤ 100
53 | Cc1cc(-c2cccc(S(C)(=O)=O)c2)c(Cl)cc1C1=C(O)C2(CCCN(S(=O)(=O)CCCC(F)(F)F)C2)OC1=O (stereo not drawn) [Example 114] | ≤ 100
54 | Cc1cc(-c2ccc([N+](=O)[O-])cc2)c(Cl)cc1C1=C(O)C2(CCC3CCCC3C2)OC1=O (stereo not drawn) [Example 89] | ≤ 100
55 | Cc1cc(-c2cccc(C)c2C)c(Cl)cc1C1=C(O)C2(CCCCC2)OC1=O [Example 33] | ≤ 100
56 | Cc1cc(-c2cccc(S(C)(=O)=O)c2)c(Cl)cc1C1=C(O)C2(CCN(C(=O)OCc3ccccc3)CC2)OC1=O [Example 72, benzyl 3-[2-chloro-5-methyl-3′-(methylsulfonyl)biphenyl-4-yl]-4-hydroxy-2-oxo-1-oxa-8-azaspiro[4.5]dec-3-ene-8-carboxylate] | ≤ 100
57 | Cc1cc(-c2cccc(C(N)=O)c2)c(Cl)cc1C1=C(O)C2(CCCCC2)OC1=O [Example 41] | ≤ 100
58 | Cc1cc(-c2ccc(Cl)cc2)c(C)cc1C1=C(O)C2(CCCCCC2)OC1=O [Example 10] | ≤ 100
59 | Cc1cc(-c2cc(NS(C)(=O)=O)ccc2F)c(Cl)cc1C1=C(O)C2(CCCCC2)OC1=O [Example 92] | ≤ 100
60 | CCS(=O)(=O)c1ccc(-c2cc(C)c(C3=C(O)C4(CCCCC4)OC3=O)cc2Cl)cc1 [Example 42] | ≤ 100
